Test results published in paper PMC8878324, “Evaluation of New Antimicrobial Agents Based on tris(1H-Indol-3-yl)methylium Salts: Activity, Toxicity, Suppression of Experimental Sepsis in Mice” (Pharmaceuticals, 2022).
Like-named read-outs stand apart in the source and are kept apart here.

System: Gram-positive bacteria
Experiment: MIC against Gram-positive bacteria
Format: cell-based
Description: We have tested the antimicrobial activity in vitro of over 100 tris(indolyl)methane derivatives against 16 strains of Gram-positive, Gram-negative bacteria and fungi including either sensitive or drug-resistant strains from ATCC, as well as resistant clinical isolates from the culture collection of the Laboratory for Control of Hospital Infections (Sechenov University, Moscow, Russia). The minimum inhibitory concentrations (MICs) were determined by the microdilution method in a cation-adjusted Müller–Hinton medium for bacteria and in a liquid culture medium RPMI 1640 with L-glutamine without sodium bicarbonate for fungi in accordance with the requirements of the Institute of Clinical and Laboratory Standards (CLSI/NCCLS). […] As a rule, their activity against Gram-negative bacteria was usually not that high. […] For comparison, the antimicrobial activity of prototype 4 is shown. The antibacterial antibiotic levofloxacin and the antifungal amphotericin B were used as reference drugs (Table 1).
The minimum inhibitory concentrations (MIC) for Gram-positive and Gram-negative bacteria were determined by two-fold serial microdilution method in a cation-adjusted Müller–Hinton medium for bacteria and in a liquid culture medium RPMI 1640 with L-glutamine without sodium bicarbonate for fungi in accordance with the requirements of the Institute of Clinical and Laboratory Standards (CLSI/NCCLS). The antibacterial antibiotic levofloxacin and the antifungal antibiotic amphotericin B from Sigma-Aldrich were used as reference drugs.

Row | SMILES | MIC | MIC (read-out: MIC)
1 | CCCn1cc([C+](c2cn(CCC)c3ccccc23)c2cn(C3=C(N(C)C)C(=O)NC3=O)c3ccccc23)c2ccccc21 [Compound 3, 1-(4-Dimethylamino-2,5-dioxo-2,5-dihydro-1H-pyrrol-3-yl) -1H-indol-3-yl) bis(1-propyl-1H-indol-3-yl) methylium chloride] | 0.13 µg/mL | –
2 | OCCCCCn1cc([C+](c2cn(CCCCCO)c3ccccc23)c2cn(CCCCCO)c3ccccc23)c2ccccc21.[Cl-] [Compound 1, tris(1-(5-Hydroxypentyl)-1H-indol-3-yl) methylium chloride] | – | 2 µg/mL
